From ChEMBL document CHEMBL3045230, “Synthesis and pharmacological evaluation of novel 4-isopropylthiazole-4-phenyl-1,2,4-triazole derivatives as potential antimicrobial and antitubercular agents” (Med Chem Res, 2013)
Converted amounts (≈) assume the structure as drawn.

Tests used:
[1] = system: Escherichia coli; test: Antimicrobial activity against Escherichia coli ATCC 10536 assessed as growth inhibition after 24 hr by broth dilution assay method; assay type: functional; conditions: ATCC 10536, 24 h
[2] = system: Pseudomonas aeruginosa; test: Antimicrobial activity against Pseudomonas aeruginosa ATCC 10145 assessed as growth inhibition after 24 hr by broth dilution assay method; assay type: functional; conditions: ATCC 10145, 24 h
[3] = system: A549; test: (§1) Cytotoxicity against Homo sapiens (human) A549 cells assessed as viable cells at 250 uM by MTT assay in presence of fetal bovine serum; assay type: cell-based; conditions: a549, 250 µM
[4] = system: Candida tropicalis; test: Antimicrobial activity against Candida tropicalis ATCC 1369 assessed as growth inhibition after 24 hr by broth dilution assay method; assay type: functional; conditions: ATCC 1369, 24 h
[5] = system: Aspergillus niger; test: Antimicrobial activity against Aspergillus niger ATCC 6275 assessed as growth inhibition after 24 hr by broth dilution assay method; assay type: functional; conditions: ATCC 6275, 24 h
[6] = system: Bacillus subtilis; test: Antimicrobial activity against Bacillus subtilis ATCC 60511 assessed as growth inhibition after 24 hr by broth dilution assay method; assay type: functional; conditions: ATCC 60511, 24 h
[7] = system: Enterococcus faecalis; test: Antimicrobial activity against […] ATCC 14506 assessed as growth inhibition after 24 hr by broth dilution assay method; assay type: functional; conditions: ATCC 14506, 24 h
[8] = system: Klebsiella pneumoniae; test: Antimicrobial activity against Klebsiella pneumoniae ATCC 10031 assessed as growth inhibition after 24 hr by broth dilution assay method; assay type: functional; conditions: ATCC 10031, 24 h
[9] = system: Staphylococcus aureus; test: Antimicrobial activity against Staphylococcus aureus ATCC 11632 assessed as growth inhibition after 24 hr by broth dilution assay method; assay type: functional; conditions: ATCC 11632, 24 h
[10] = system: Mycobacterium tuberculosis; test: Antitubercular activity against Mycobacterium tuberculosis H37Rv assessed as growth inhibition after 21 days by broth dilution assay method; assay type: functional; conditions: 504 h
[11] = as §1; assay type: cell-based; conditions: A549 cells, read-out: Activity
[12] = system: Saccharomyces cerevisiae; test: Antimicrobial activity against Saccharomyces cerevisiae ATCC 9763 assessed as growth inhibition after 24 hr by broth dilution assay method; assay type: functional; conditions: ATCC 9763, 24 h

| SMILES | MIC [1] | MIC [2] | Activity [3] | MIC [4] | MIC [5] | MIC [6] | MIC [7] | MIC [8] | MIC [9] | MIC [10] | viability at 250 µM [11] | MIC [12] |
| --- | --- | --- | --- | --- | --- | --- | --- | --- | --- | --- | --- | --- |
| CC(C)c1csc(-c2nnc(SCC(=O)N/N=C/c3ccc(O)cc3)n2-c2ccccc2)n1 | 125 mg/L (≈ 261 µM) | 62.5 mg/L (≈ 131 µM) | Toxic | 62.5 mg/L (≈ 131 µM) | 31.2 mg/L (≈ 65.3 µM) | 125 mg/L (≈ 261 µM) | 16 mg/L (≈ 33.4 µM) | 16 mg/L (≈ 33.4 µM) | 125 mg/L (≈ 261 µM) | 8 mg/L (≈ 16.7 µM) | – | – |
| CC(C)c1csc(-c2nnc(SCc3nnc(-c4ccc(Cl)cc4)o3)n2-c2ccccc2)n1 | 62.5 mg/L (≈ 126 µM) | 62.5 mg/L (≈ 126 µM) | – | 125 mg/L (≈ 253 µM) | 125 mg/L (≈ 253 µM) | 4 mg/L (≈ 8.08 µM) | 8 mg/L (≈ 16.2 µM) | 62.5 mg/L (≈ 126 µM) | 8 mg/L (≈ 16.2 µM) | – | 50% | 62.5 mg/L (≈ 126 µM) |
| CC(C)c1csc(-c2nnc(SCC(=O)N/N=C/c3ccc(Cl)cc3)n2-c2ccccc2)n1 | 31.2 mg/L (≈ 62.9 µM) | 62.5 mg/L (≈ 126 µM) | – | 31.2 mg/L (≈ 62.9 µM) | 31.2 mg/L (≈ 62.9 µM) | 31.2 mg/L (≈ 62.9 µM) | 31.2 mg/L (≈ 62.9 µM) | 62.5 mg/L (≈ 126 µM) | 62.5 mg/L (≈ 126 µM) | 125 mg/L (≈ 251 µM) | – | 16 mg/L (≈ 32.2 µM) |
| COc1ccc(/C(C)=N/NC(=O)CSc2nnc(-c3nc(C(C)C)cs3)n2-c2ccccc2)cc1 | 125 mg/L (≈ 247 µM) | 62.5 mg/L (≈ 123 µM) | – | 125 mg/L (≈ 247 µM) | 125 mg/L (≈ 247 µM) | 62.5 mg/L (≈ 123 µM) | 31.2 mg/L (≈ 61.7 µM) | 250 mg/L (≈ 493 µM) | 31.2 mg/L (≈ 61.7 µM) | 8 mg/L (≈ 15.8 µM) | – | 62.5 mg/L (≈ 123 µM) |
| C/C(=N\NC(=O)CSc1nnc(-c2nc(C(C)C)cs2)n1-c1ccccc1)c1ccc(Cl)cc1 | 16 mg/L (≈ 31.3 µM) | 31.2 mg/L (≈ 61.1 µM) | – | 31.2 mg/L (≈ 61.1 µM) | 125 mg/L (≈ 245 µM) | 125 mg/L (≈ 245 µM) | 31.2 mg/L (≈ 61.1 µM) | 62.5 mg/L (≈ 122 µM) | 31.2 mg/L (≈ 61.1 µM) | 31.2 mg/L (≈ 61.1 µM) | – | 31.2 mg/L (≈ 61.1 µM) |
| CC(C)c1csc(-c2nnc(SCC(=O)NN)n2-c2ccccc2)n1 | 8 mg/L (≈ 21.4 µM) | 8 mg/L (≈ 21.4 µM) | – | 31.2 mg/L (≈ 83.4 µM) | 31.2 mg/L (≈ 83.4 µM) | 31.2 mg/L (≈ 83.4 µM) | 31.2 mg/L (≈ 83.4 µM) | 8 mg/L (≈ 21.4 µM) | 16 mg/L (≈ 42.7 µM) | 16 mg/L (≈ 42.7 µM) | 50% | 62.5 mg/L (≈ 167 µM) |
| CC(=O)NNC(=O)CSc1nnc(-c2nc(C(C)C)cs2)n1-c1ccccc1 | 62.5 mg/L (≈ 150 µM) | 125 mg/L (≈ 300 µM) | – | 8 mg/L (≈ 19.2 µM) | 8 mg/L (≈ 19.2 µM) | 62.5 mg/L (≈ 150 µM) | 125 mg/L (≈ 300 µM) | 31.2 mg/L (≈ 75 µM) | 125 mg/L (≈ 300 µM) | 62.5 mg/L (≈ 150 µM) | – | 16 mg/L (≈ 38.4 µM) |
| CCOC(=O)CSc1nnc(-c2nc(C(C)C)cs2)n1-c1ccccc1 | 125 mg/L (≈ 322 µM) | 62.5 mg/L (≈ 161 µM) | – | 125 mg/L (≈ 322 µM) | 62.5 mg/L (≈ 161 µM) | 62.5 mg/L (≈ 161 µM) | 125 mg/L (≈ 322 µM) | 125 mg/L (≈ 322 µM) | 125 mg/L (≈ 322 µM) | 125 mg/L (≈ 322 µM) | – | 62.5 mg/L (≈ 161 µM) |
| C/C(=N\NC(=O)CSc1nnc(-c2nc(C(C)C)cs2)n1-c1ccccc1)c1ccc(C)cc1 | 125 mg/L (≈ 255 µM) | 62.5 mg/L (≈ 127 µM) | – | 125 mg/L (≈ 255 µM) | 31.2 mg/L (≈ 63.7 µM) | 31.2 mg/L (≈ 63.7 µM) | 62.5 mg/L (≈ 127 µM) | 16 mg/L (≈ 32.6 µM) | 125 mg/L (≈ 255 µM) | 62.5 mg/L (≈ 127 µM) | – | 62.5 mg/L (≈ 127 µM) |
| C/C(=N\NC(=O)CSc1nnc(-c2nc(C(C)C)cs2)n1-c1ccccc1)c1ccc(O)cc1 | 16 mg/L (≈ 32.5 µM) | 16 mg/L (≈ 32.5 µM) | – | 8 mg/L (≈ 16.2 µM) | 8 mg/L (≈ 16.2 µM) | 62.5 mg/L (≈ 127 µM) | 31.2 mg/L (≈ 63.4 µM) | 31.2 mg/L (≈ 63.4 µM) | 62.5 mg/L (≈ 127 µM) | 16 mg/L (≈ 32.5 µM) | 50% | 31.2 mg/L (≈ 63.4 µM) |
| COc1ccc(/C=N/NC(=O)CSc2nnc(-c3nc(C(C)C)cs3)n2-c2ccccc2)cc1OC | 16 mg/L (≈ 30.6 µM) | 31.2 mg/L (≈ 59.8 µM) | – | 31.2 mg/L (≈ 59.8 µM) | 16 mg/L (≈ 30.6 µM) | 8 mg/L (≈ 15.3 µM) | 12 mg/L (≈ 23 µM) | 16 mg/L (≈ 30.6 µM) | 8 mg/L (≈ 15.3 µM) | 8 mg/L (≈ 15.3 µM) | – | 16 mg/L (≈ 30.6 µM) |
| C/C(=N\NC(=O)CSc1nnc(-c2nc(C(C)C)cs2)n1-c1ccccc1)c1ccc([N+](=O)[O-])cc1 | 62.5 mg/L (≈ 120 µM) | 62.5 mg/L (≈ 120 µM) | – | 31.2 mg/L (≈ 59.9 µM) | 125 mg/L (≈ 240 µM) | 125 mg/L (≈ 240 µM) | 31.2 mg/L (≈ 59.9 µM) | 31.2 mg/L (≈ 59.9 µM) | 31.2 mg/L (≈ 59.9 µM) | 62.5 mg/L (≈ 120 µM) | – | 125 mg/L (≈ 240 µM) |
| C/C(=N\NC(=O)CSc1nnc(-c2nc(C(C)C)cs2)n1-c1ccccc1)c1ccc(Br)cc1 | 62.5 mg/L (≈ 113 µM) | 125 mg/L (≈ 225 µM) | – | 125 mg/L (≈ 225 µM) | 31.2 mg/L (≈ 56.3 µM) | 62.5 mg/L (≈ 113 µM) | 125 mg/L (≈ 225 µM) | 31.2 mg/L (≈ 56.3 µM) | 16 mg/L (≈ 28.8 µM) | 31.2 mg/L (≈ 56.3 µM) | – | 31.2 mg/L (≈ 56.3 µM) |
